BigSolDB 2.1

CC(=O)Nc1ccc(O)cc1
solubility (mole fraction)
Conditions | 293.15 K | 298.15 K | 303.15 K | 308.15 K | 313.15 K
in ethanol | 0.0505 | 0.0546 | 0.062 | 0.067 | 0.0705
in propylene glycol | 0.0483 | 0.0516 | 0.0603 | 0.0664 | 0.0752
